Paper PMC13224317 (SLAS discovery : advancing life sciences R & D, 2025)
Several values for one entry are separate records, joined by “and”; a condition that tells them apart may be missing. Identical values can stand only once. Like-named read-outs stand apart in the source and are kept apart here.

Key:
[1] = system: icSARS-CoV-2-nLuc; test: microbe, parasite or virus in culture; format: cell-based, SARS-CoV-2
[2] = system: icSARS-CoV-2-nLuc; test: microbe, parasite or virus in culture; format: cell-based, SARS-CoV-2; conditions: Severe acute respiratory syndrome coronavirus 2, 48 h, read-out: IC50 against icSARS-CoV-2-nLuc, immunofluorescence data
[3] = system: C3 cell line; test: Cytotoxicity toward the C3 cell line (single point at 10 μM and CC50); format: cell-based; conditions: raw well reading, duplicate wells
Method: The rate of false positive hits was 2.5% between the two biological replicates. […] The 3 compounds have CC50 equal to- or higher than 36 μM. Based on available information, these three compounds have not been tested against SARS-CoV-2 nor have any reports of antiviral activity, and therefore warrant further investigation.

[4] = system: icSARS-CoV-2-nLuc; format: cell-based, SARS-CoV-2
[5] = system: icSARS-CoV-2-nLuc; format: cell-based, SARS-CoV-2; remark: listed apart in the source
[6] = Severe acute respiratory syndrome coronavirus 2, A549-ACE2, read-out: IC50, susceptibility of icSARS-CoV-2-nLuc to reference drugs, luminescence readout

CC(C)(C)[C@H](NC(=O)C(F)(F)F)C(=O)N1C[C@H]2[C@@H]([C@H]1C(=O)N[C@H](C#N)C[C@@H]1CCNC1=O)C2(C)C [Nirmatrelvir]
IC50 [1, 6]: 30 nM
raw nLuc luminescence signal per well, dose response ([1]; concentration 0.148148 µM): 129461 and 120874 and 136852 and 130464 and 147289 and 142579 and 149179 and 144629
raw nLuc luminescence signal per well, dose response ([1]; concentration 0.444444 µM): 144250 and 143681 and 125477 and 126336 and 137581 and 142321 and 138240 and 131508
raw nLuc luminescence signal per well, dose response ([1]; concentration 1.33333 µM): 118306 and 118449 and 125083 and 124306 and 125230 and 130577 and 130784 and 122912
raw nLuc luminescence signal per well, dose response ([1]; concentration 4 µM): 141288 and 139348 and 122581 and 121573 and 133806 and 135394 and 143645 and 132419
raw nLuc luminescence signal per well, dose response ([1]; concentration 12 µM): 120474 and 114610 and 123671 and 120946 and 130686 and 127115 and 126419 and 123917
raw nLuc luminescence signal per well, dose response ([1]; concentration 36 µM): 145649 and 139944 and 128235 and 120973 and 144302 and 134374 and 139812 and 128239

CCC(CC)COC(=O)[C@H](C)N[P@](=O)(OC[C@H]1O[C@@](C#N)(c2ccc3c(N)ncnn23)[C@H](O)[C@@H]1O)Oc1ccccc1 [REM, Remdesivir]
antiviral activity (raw luminescence signal per well) [1]: 150661 and 137685 and 146593 and 141302
IC50 ([1]; Severe acute respiratory syndrome coronavirus 2, A549-ACE2, 24 h, read-out: IC50 against icSARS-CoV-2-nLuc, luminescence data): 110 nM
inhibition at 10 µM ([1]; Severe acute respiratory syndrome coronavirus 2, A549-ACE2, 24 h, read-out: inhibition of the virus growth, single point screening): ≥ 90%
raw nLuc luminescence signal per well, dose response ([1]; concentration 0.444444 µM): 158425 and 172179 and 190756 and 205337
raw nLuc luminescence signal per well, dose response ([1]; concentration 4 µM): 140393 and 141108 and 138540
raw nLuc luminescence signal per well, dose response ([1]; concentration 36 µM): 142704 and 141754 and 139812
IC50 [2]: 110 nM
MMV hits Cytotoxicity testing, raw plate signal ([3]; REM 0.0175781 µM): 281684 and 292421
MMV hits Cytotoxicity testing, raw plate signal ([3]; REM 0.0351562 µM): 291406 and 276805
MMV hits Cytotoxicity testing, raw plate signal ([3]; REM 0.0703125 µM): 281356 and 294787
MMV hits Cytotoxicity testing, raw plate signal ([3]; REM 0.140625 µM): 287615 and 296564
MMV hits Cytotoxicity testing, raw plate signal ([3]; REM 0.28125 µM): 294079 and 296093
MMV hits Cytotoxicity testing, raw plate signal ([3]; REM 0.5625 µM): 294522 and 291744
MMV hits Cytotoxicity testing, raw plate signal ([3]; REM 1.125 µM): 302792 and 294805
MMV hits Cytotoxicity testing, raw plate signal ([3]; REM 2.25 µM): 325677 and 303163
MMV hits Cytotoxicity testing, raw plate signal ([3]; REM 4.5 µM): 318660 and 288026
Low (luminescence signal) [4]: 335845.000 and 285428.000 and 332082.000 and 282797.000
Mid % [4]: 82.63% and 75.37% and 74.20% and 71.84%
Mid (luminescence signal) [4]: 685741.000 and 855540.000 and 882878.000 and 938084.000
Midpc [4]: 82.63 and 75.37 and 74.20 and 71.84
%Spec [5]: 89.5% and 90.0% and 90.1%
Luminescence signal, Mean (Low signal) [5]: 181028.44 and 176326.81 and 171413.00
Luminescence signal, Mean (Mid signal) [5]: 237318.53 and 220683.44 and 197501.22

CC(C)C(=O)OC[C@H]1O[C@@H](n2ccc(NO)nc2=O)[C@H](O)[C@@H]1O [Molnupiravir]
IC50 [1, 6]: 1200 nM
raw nLuc luminescence signal per well, dose response ([1]; concentration 4 µM): 595475 and 830276 and 640577 and 536261 and 913575 and 492391 and 665617 and 629700
raw nLuc luminescence signal per well, dose response ([1]; concentration 12 µM): 258630 and 294602 and 224846 and 411089 and 320496 and 281484 and 318686 and 264637
raw nLuc luminescence signal per well, dose response ([1]; concentration 36 µM): 206765 and 173526 and 155560 and 157303 and 194898 and 197104 and 194373 and 153593

CCCC[C@H](NC(=O)[C@@H]1[C@@H]2[C@H](CN1C(=O)[C@@H](NC(=O)NC1(CS(=O)(=O)C(C)(C)C)CCCCC1)C(C)(C)C)C2(C)C)C(=O)C(=O)NC1CC1 [Narlaprevir]
IC50 [1, 6]: 2000 nM

CC(C)c1nc(CN(C)C(=O)N[C@H](C(=O)N[C@@H](Cc2ccccc2)C[C@H](O)[C@H](Cc2ccccc2)NC(=O)OCc2cncs2)C(C)C)cs1 [Ritonavir]
IC50 [1, 6]: 7200 nM
raw nLuc luminescence signal per well, dose response ([1]; concentration 0.444444 µM): 2035673 and 1546345 and 1888256 and 1167395 and 1955627 and 1676062 and 1569839 and 1463523
raw nLuc luminescence signal per well, dose response ([1]; concentration 4 µM): 1601511 and 1681837 and 928783 and 1028382 and 1282975 and 1526902 and 1006334 and 1132442
raw nLuc luminescence signal per well, dose response ([1]; concentration 36 µM): 183316 and 177778 and 167818 and 167859 and 159406 and 217854 and 184869 and 201752

CC(C)(C)NC(=O)N[C@H](C(=O)N1C[C@H]2[C@@H]([C@H]1C(=O)NC(CC1CCC1)C(=O)C(N)=O)C2(C)C)C(C)(C)C (some centres unmarked) [Boceprelvir, Boceprevir]
IC50 [1, 6]: 3000 nM
raw nLuc luminescence signal per well, dose response ([1]; concentration 0.444444 µM): 1318016 and 1552909 and 1027714 and 1937158 and 1341520 and 1697592 and 1866146 and 1427750
raw nLuc luminescence signal per well, dose response ([1]; concentration 1.33333 µM): 1081320 and 1354101 and 1808712 and 2111860 and 1262757 and 1236512 and 1094043 and 1751641
raw nLuc luminescence signal per well, dose response ([1]; concentration 12 µM): 325338 and 397893 and 288277 and 313675 and 434098 and 457388 and 421160 and 498406
raw nLuc luminescence signal per well, dose response ([1]; concentration 36 µM): 152331 and 158422 and 131796 and 134954 and 143730 and 155578 and 143192 and 145460

CCCC[C@H](NC(=O)[C@@H]1[C@@H]2[C@H](CN1C(=O)[C@@H](NC(=O)NC1(CS(=O)(=O)C(C)(C)C)CCCCC1)C(C)(C)C)C2(C)C)C(=O)C(=O)NC1CC1 [Naraprelvir]
raw nLuc luminescence signal per well, dose response ([1]; concentration 0.00548697 µM): 1369356 and 1475085 and 1731318 and 2527784 and 1481798 and 1643468 and 2199354 and 1849240
raw nLuc luminescence signal per well, dose response ([1]; concentration 0.0493827 µM): 1943993 and 1719572 and 1531026 and 1265407 and 2037762 and 2296036 and 2164802 and 2297300
raw nLuc luminescence signal per well, dose response ([1]; concentration 36 µM): 156020 and 155359 and 134274 and 128833 and 143226 and 151190 and 148617 and 136366
